{
  "source": "patent US9682995B2",
  "about": "“Amino-substituted isothiazoles” (BAYER PHARMA AKTIENGESELLSCHAFT, priority 2013, dated 2017)",
  "assay_in_all_cases": "Kinase Profiling (KINOMEscan)",
  "assay_type_in_all_cases": "binding",
  "key": {"[1]": {"molecular_target": "456 kinases (of these 395 non-mutant kinases) (Homo sapiens, UniProt O14578)", "settings": "CIT; 10 μM"}, "[2]": {"molecular_target": "456 kinases (of these 395 non-mutant kinases) (Homo sapiens, UniProt O76039)", "settings": "CDKL5; 10 μM"}, "[3]": {"molecular_target": "456 kinases (of these 395 non-mutant kinases) (Homo sapiens, UniProt P00519, Q252H)", "settings": "10 μM"}, "[4]": {"molecular_target": "456 kinases (of these 395 non-mutant kinases) (Homo sapiens, UniProt P06241)", "sequence (P06241 2-537 limits assumed, change not shown)": "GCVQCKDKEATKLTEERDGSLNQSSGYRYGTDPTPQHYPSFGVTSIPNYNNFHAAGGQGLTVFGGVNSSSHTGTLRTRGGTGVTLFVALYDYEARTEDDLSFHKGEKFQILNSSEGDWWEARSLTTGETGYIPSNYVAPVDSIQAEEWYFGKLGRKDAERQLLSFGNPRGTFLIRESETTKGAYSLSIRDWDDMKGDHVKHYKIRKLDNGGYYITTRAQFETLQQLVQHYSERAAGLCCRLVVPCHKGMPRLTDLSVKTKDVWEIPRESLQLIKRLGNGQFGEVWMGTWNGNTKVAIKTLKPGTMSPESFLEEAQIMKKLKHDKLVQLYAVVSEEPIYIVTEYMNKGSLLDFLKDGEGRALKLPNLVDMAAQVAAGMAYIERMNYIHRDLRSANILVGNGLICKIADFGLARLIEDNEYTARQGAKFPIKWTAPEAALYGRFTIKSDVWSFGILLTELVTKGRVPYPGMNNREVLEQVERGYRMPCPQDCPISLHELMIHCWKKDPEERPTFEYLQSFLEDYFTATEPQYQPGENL", "settings": "FYN; 10 μM"}, "[5]": {"molecular_target": "456 kinases (of these 395 non-mutant kinases) (Homo sapiens, UniProt P08581, M1250T)", "settings": "MET(M1250T); 10 μM"}, "[6]": {"molecular_target": "456 kinases (of these 395 non-mutant kinases) (Homo sapiens, UniProt P10721, D816V)", "settings": "KIT(D816V); 10 μM"}, "[7]": {"molecular_target": "456 kinases (of these 395 non-mutant kinases) (Homo sapiens, UniProt P16234)", "sequence (P16234 24-1089 limits assumed, change not shown)": "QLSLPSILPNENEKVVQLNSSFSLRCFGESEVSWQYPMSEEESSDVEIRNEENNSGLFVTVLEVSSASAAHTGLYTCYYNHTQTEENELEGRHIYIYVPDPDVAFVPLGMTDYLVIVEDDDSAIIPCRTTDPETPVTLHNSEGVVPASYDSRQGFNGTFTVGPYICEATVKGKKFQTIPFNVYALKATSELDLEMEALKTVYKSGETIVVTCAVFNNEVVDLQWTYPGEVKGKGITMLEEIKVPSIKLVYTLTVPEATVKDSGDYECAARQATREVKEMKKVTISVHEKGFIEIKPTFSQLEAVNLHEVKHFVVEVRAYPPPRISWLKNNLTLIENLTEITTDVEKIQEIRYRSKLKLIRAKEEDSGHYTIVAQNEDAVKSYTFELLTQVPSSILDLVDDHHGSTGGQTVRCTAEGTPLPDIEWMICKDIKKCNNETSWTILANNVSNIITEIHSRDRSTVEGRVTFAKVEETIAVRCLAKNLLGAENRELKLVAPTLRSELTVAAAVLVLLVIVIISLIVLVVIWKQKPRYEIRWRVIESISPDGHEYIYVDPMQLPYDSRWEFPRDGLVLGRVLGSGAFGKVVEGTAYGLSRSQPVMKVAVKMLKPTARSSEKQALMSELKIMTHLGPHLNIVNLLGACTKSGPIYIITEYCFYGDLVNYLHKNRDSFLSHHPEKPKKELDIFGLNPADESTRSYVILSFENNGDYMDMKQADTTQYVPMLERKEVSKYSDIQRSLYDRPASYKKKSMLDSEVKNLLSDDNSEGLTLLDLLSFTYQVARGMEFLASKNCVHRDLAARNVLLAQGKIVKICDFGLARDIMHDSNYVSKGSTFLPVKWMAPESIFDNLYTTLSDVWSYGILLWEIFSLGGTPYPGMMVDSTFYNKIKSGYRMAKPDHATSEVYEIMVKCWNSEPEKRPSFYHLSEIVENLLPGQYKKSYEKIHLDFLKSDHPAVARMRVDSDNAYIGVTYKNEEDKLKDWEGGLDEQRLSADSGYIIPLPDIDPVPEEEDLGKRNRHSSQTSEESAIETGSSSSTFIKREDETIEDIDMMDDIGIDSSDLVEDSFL", "settings": "PDGFRA; 10 μM"}, "[8]": {"molecular_target": "456 kinases (of these 395 non-mutant kinases) (Homo sapiens, UniProt P21709)", "settings": "EPHA1; 10 μM"}, "[9]": {"molecular_target": "456 kinases (of these 395 non-mutant kinases) (Homo sapiens, UniProt P22455)", "sequence (P22455 22-802 limits assumed, change not shown)": "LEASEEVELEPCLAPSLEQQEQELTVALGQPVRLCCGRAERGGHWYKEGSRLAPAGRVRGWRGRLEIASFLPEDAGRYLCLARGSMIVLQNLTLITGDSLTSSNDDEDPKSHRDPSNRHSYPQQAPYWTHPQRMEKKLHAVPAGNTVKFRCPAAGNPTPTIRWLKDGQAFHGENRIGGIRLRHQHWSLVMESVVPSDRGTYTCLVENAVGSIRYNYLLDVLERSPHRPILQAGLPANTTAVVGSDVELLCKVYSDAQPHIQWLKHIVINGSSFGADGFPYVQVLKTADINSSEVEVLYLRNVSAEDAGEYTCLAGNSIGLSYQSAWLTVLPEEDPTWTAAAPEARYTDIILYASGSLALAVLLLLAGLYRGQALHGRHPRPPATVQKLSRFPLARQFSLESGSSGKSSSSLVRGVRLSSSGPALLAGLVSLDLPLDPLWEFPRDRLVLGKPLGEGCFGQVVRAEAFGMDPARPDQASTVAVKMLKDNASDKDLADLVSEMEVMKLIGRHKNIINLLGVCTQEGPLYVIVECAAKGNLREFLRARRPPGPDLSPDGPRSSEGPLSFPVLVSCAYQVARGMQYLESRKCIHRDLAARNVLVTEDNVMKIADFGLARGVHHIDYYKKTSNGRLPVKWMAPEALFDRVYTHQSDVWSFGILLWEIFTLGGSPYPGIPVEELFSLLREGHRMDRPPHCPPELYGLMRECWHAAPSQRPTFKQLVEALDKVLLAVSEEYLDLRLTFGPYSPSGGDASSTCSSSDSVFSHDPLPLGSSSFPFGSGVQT", "settings": "FGFR4; 10 μM"}, "[10]": {"molecular_target": "456 kinases (of these 395 non-mutant kinases) (Homo sapiens, UniProt P28482)", "settings": "ERK2; 10 μM"}, "[11]": {"molecular_target": "456 kinases (of these 395 non-mutant kinases) (Homo sapiens, UniProt P29317)", "settings": "EPHA2; 10 μM"}, "[12]": {"molecular_target": "456 kinases (of these 395 non-mutant kinases) (Homo sapiens, UniProt P29322)", "settings": "EPHA8; 10 μM"}, "[13]": {"molecular_target": "456 kinases (of these 395 non-mutant kinases) (Homo sapiens, UniProt P42336, C420R)", "settings": "PIK3CA(C420R); 10 μM"}, "[14]": {"molecular_target": "456 kinases (of these 395 non-mutant kinases) (Homo sapiens, UniProt P43403)", "settings": "ZAP70; 10 μM"}, "[15]": {"molecular_target": "456 kinases (of these 395 non-mutant kinases) (Homo sapiens, UniProt P48729)", "sequence (P48729 2-337 limits assumed, change not shown)": "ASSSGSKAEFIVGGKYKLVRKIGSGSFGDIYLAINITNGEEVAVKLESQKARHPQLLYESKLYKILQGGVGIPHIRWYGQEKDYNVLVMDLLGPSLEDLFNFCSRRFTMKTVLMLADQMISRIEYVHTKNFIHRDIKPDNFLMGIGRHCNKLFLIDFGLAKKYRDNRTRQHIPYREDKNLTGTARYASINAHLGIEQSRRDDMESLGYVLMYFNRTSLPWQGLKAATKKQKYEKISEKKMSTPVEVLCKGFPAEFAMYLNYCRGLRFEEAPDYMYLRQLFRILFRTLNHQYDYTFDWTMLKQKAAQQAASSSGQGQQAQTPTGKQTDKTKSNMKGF", "settings": "CSNK1A1; 10 μM"}, "[16]": {"molecular_target": "456 kinases (of these 395 non-mutant kinases) (Homo sapiens, UniProt P50613)", "settings": "CDK7; 10 μM"}, "[17]": {"molecular_target": "456 kinases (of these 395 non-mutant kinases) (Homo sapiens, UniProt P53779)", "settings": "JNK3; 10 μM"}, "[18]": {"molecular_target": "456 kinases (of these 395 non-mutant kinases) (Homo sapiens, UniProt Q05397)", "settings": "FAK; 10 μM"}, "[19]": {"molecular_target": "456 kinases (of these 395 non-mutant kinases) (Homo sapiens, UniProt Q07002)", "settings": "PCTK3; 10 μM"}, "[20]": {"molecular_target": "456 kinases (of these 395 non-mutant kinases) (Homo sapiens, UniProt Q13237)", "sequence (Q13237 2-762 limits assumed, change not shown)": "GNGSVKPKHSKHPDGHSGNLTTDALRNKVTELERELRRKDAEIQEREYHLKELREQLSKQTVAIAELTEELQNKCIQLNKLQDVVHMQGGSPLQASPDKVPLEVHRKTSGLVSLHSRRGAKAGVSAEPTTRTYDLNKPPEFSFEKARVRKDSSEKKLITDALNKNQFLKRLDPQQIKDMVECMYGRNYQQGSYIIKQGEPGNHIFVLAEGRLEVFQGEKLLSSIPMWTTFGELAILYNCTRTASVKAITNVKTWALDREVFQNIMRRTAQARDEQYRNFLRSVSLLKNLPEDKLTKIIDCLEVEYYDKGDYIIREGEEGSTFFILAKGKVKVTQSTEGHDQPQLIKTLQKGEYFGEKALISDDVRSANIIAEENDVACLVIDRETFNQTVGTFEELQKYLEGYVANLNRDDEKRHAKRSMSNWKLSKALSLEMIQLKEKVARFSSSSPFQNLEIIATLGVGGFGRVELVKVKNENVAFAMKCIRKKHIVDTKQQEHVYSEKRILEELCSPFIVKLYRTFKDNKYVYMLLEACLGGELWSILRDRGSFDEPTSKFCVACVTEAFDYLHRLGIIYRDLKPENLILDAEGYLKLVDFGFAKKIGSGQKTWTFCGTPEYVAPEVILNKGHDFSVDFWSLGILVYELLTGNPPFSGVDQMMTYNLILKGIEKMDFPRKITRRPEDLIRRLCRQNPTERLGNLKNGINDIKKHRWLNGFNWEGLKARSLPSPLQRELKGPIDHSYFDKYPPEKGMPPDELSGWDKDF", "settings": "PRKG2; 10 μM"}, "[21]": {"molecular_target": "456 kinases (of these 395 non-mutant kinases) (Homo sapiens, UniProt Q14680)", "settings": "MELK; 10 μM"}, "[22]": {"molecular_target": "456 kinases (of these 395 non-mutant kinases) (Homo sapiens, UniProt Q15759)", "settings": "p38-beta; 10 μM"}, "[23]": {"molecular_target": "456 kinases (of these 395 non-mutant kinases) (Homo sapiens, UniProt Q16659)", "settings": "ERK3; 10 μM"}, "[24]": {"molecular_target": "456 kinases (of these 395 non-mutant kinases) (Homo sapiens, UniProt Q32MK0)", "settings": "MLCK; 10 μM"}, "[25]": {"molecular_target": "456 kinases (of these 395 non-mutant kinases) (Homo sapiens, UniProt Q8N568)", "settings": "DCAMKL2; 10 μM"}, "[26]": {"molecular_target": "456 kinases (of these 395 non-mutant kinases) (Homo sapiens, UniProt Q8NG66)", "settings": "NEK11; 10 μM"}, "[27]": {"molecular_target": "456 kinases (of these 395 non-mutant kinases) (Homo sapiens, UniProt Q9H4B4)", "settings": "PLK3; 10 μM"}, "[28]": {"molecular_target": "456 kinases (of these 395 non-mutant kinases) (Homo sapiens, UniProt Q9HC98)", "settings": "NEK6; 10 μM"}, "[29]": {"molecular_target": "456 kinases (of these 395 non-mutant kinases) (Homo sapiens, UniProt Q9UF33)", "sequence (Q9UF33 23-1036 limits assumed, change not shown)": "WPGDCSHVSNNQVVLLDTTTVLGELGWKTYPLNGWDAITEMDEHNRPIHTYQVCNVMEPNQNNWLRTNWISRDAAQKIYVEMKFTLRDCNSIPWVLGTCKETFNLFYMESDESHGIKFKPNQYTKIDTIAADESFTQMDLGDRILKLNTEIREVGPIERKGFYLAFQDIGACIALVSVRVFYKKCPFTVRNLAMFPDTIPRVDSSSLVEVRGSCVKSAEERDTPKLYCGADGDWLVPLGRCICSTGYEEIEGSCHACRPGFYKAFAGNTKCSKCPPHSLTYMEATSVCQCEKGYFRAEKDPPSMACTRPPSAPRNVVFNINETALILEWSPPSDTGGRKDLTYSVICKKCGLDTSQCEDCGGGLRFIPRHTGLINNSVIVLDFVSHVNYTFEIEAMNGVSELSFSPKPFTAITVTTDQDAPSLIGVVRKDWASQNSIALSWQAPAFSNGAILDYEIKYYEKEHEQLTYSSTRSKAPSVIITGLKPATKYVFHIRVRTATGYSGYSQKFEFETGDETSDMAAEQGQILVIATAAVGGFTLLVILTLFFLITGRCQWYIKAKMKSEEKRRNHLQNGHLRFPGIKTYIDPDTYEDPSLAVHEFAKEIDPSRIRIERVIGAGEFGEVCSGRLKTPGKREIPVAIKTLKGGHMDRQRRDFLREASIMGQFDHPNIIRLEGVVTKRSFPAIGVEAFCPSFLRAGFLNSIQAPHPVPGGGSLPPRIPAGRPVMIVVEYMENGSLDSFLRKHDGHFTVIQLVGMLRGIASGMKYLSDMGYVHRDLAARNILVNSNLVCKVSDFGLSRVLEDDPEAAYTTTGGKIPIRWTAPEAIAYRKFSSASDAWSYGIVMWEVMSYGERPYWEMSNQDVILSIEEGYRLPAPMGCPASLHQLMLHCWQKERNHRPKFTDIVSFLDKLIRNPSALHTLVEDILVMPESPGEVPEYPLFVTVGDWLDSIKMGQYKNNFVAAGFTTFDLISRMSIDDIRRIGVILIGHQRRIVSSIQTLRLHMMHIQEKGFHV", "settings": "EPHA6; 10 μM"}, "[30]": {"molecular_target": "456 kinases (of these 395 non-mutant kinases) (Homo sapiens, UniProt Q9UL54)", "settings": "TAOK2; 10 μM"}, "[31]": {"molecular_target": "456 kinases (of these 395 non-mutant kinases) (Homo sapiens, UniProt Q9Y243)", "sequence (Q9Y243 2-479 limits assumed, change not shown)": "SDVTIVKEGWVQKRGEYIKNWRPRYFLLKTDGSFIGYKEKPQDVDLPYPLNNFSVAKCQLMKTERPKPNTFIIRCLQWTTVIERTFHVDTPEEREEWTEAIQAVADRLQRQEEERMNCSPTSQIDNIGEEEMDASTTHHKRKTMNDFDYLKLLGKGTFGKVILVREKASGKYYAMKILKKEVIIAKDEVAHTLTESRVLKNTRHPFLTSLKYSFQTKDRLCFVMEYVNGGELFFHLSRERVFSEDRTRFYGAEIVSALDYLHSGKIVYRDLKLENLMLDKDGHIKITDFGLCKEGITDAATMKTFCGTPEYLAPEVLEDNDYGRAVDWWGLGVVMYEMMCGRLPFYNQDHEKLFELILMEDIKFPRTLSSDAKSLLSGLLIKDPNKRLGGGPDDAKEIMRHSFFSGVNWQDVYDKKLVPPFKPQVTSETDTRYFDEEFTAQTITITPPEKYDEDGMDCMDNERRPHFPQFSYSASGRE", "settings": "AKT3; 10 μM"}, "[32]": {"molecular_target": "456 kinases (of these 395 non-mutant kinases) (Homo sapiens, UniProt Q9Y5S2)", "settings": "MRCKB; 10 μM"}},
  "data": [
    {"smiles": "CCc1ccccc1NC(=O)c1c(C)nsc1Nc1cnc2cc(F)ccc2n1", "note": "[Example 20, N-(2-Ethylphenyl)-5-[(6-fluoroquinoxalin-2-yl)amino]-3-methyl-1,2-thiazole-4-carboxamide]", "values": [
      {"measurement": "% Ctrl @ 10 μM", "setting": "[1]", "value": 80, "unit": "% Ctrl"},
      {"measurement": "% Ctrl @ 10 μM", "setting": "[2]", "value": 100, "unit": "% Ctrl"},
      {"measurement": "% Ctrl @ 10 μM", "setting": "[3]; ABL1(Q252H)-nonphosphorylated", "value": 100, "unit": "% Ctrl"},
      {"measurement": "% Ctrl @ 10 μM", "setting": "[3]; ABL1(Q252H)-phosphorylated", "value": 100, "unit": "% Ctrl"},
      {"measurement": "% Ctrl @ 10 μM", "setting": "[4]", "value": 57, "unit": "% Ctrl"},
      {"measurement": "% Ctrl @ 10 μM", "setting": "[5]", "value": 100, "unit": "% Ctrl"},
      {"measurement": "% Ctrl @ 10 μM", "setting": "[6]", "value": 61, "unit": "% Ctrl"},
      {"measurement": "% Ctrl @ 10 μM", "setting": "[7]", "value": 100, "unit": "% Ctrl"},
      {"measurement": "% Ctrl @ 10 μM", "setting": "[8]", "value": 95, "unit": "% Ctrl"},
      {"measurement": "% Ctrl @ 10 μM", "setting": "[9]", "value": 77, "unit": "% Ctrl"},
      {"measurement": "% Ctrl @ 10 μM", "setting": "[10]", "value": 96, "unit": "% Ctrl"},
      {"measurement": "% Ctrl @ 10 μM", "setting": "[11]", "value": 88, "unit": "% Ctrl"},
      {"measurement": "% Ctrl @ 10 μM", "setting": "[12]", "value": 96, "unit": "% Ctrl"},
      {"measurement": "% Ctrl @ 10 μM", "setting": "[13]", "value": 96, "unit": "% Ctrl"},
      {"measurement": "% Ctrl @ 10 μM", "setting": "[14]", "value": 88, "unit": "% Ctrl"},
      {"measurement": "% Ctrl @ 10 μM", "setting": "[15]", "value": 92, "unit": "% Ctrl"},
      {"measurement": "% Ctrl @ 10 μM", "setting": "[16]", "value": 92, "unit": "% Ctrl"},
      {"measurement": "% Ctrl @ 10 μM", "setting": "[17]", "value": 100, "unit": "% Ctrl"},
      {"measurement": "% Ctrl @ 10 μM", "setting": "[18]", "value": 94, "unit": "% Ctrl"},
      {"measurement": "% Ctrl @ 10 μM", "setting": "[19]", "value": 82, "unit": "% Ctrl"},
      {"measurement": "% Ctrl @ 10 μM", "setting": "[20]", "value": 100, "unit": "% Ctrl"},
      {"measurement": "% Ctrl @ 10 μM", "setting": "[21]", "value": 100, "unit": "% Ctrl"},
      {"measurement": "% Ctrl @ 10 μM", "setting": "[22]", "value": 100, "unit": "% Ctrl"},
      {"measurement": "% Ctrl @ 10 μM", "setting": "[23]", "value": 68, "unit": "% Ctrl"},
      {"measurement": "% Ctrl @ 10 μM", "setting": "[24]", "value": 88, "unit": "% Ctrl"},
      {"measurement": "% Ctrl @ 10 μM", "setting": "[25]", "value": 98, "unit": "% Ctrl"},
      {"measurement": "% Ctrl @ 10 μM", "setting": "[26]", "value": 92, "unit": "% Ctrl"},
      {"measurement": "% Ctrl @ 10 μM", "setting": "[27]", "value": 92, "unit": "% Ctrl"},
      {"measurement": "% Ctrl @ 10 μM", "setting": "[28]", "value": 100, "unit": "% Ctrl"},
      {"measurement": "% Ctrl @ 10 μM", "setting": "[29]", "value": 85, "unit": "% Ctrl"},
      {"measurement": "% Ctrl @ 10 μM", "setting": "[30]", "value": 100, "unit": "% Ctrl"},
      {"measurement": "% Ctrl @ 10 μM", "setting": "[31]", "value": 100, "unit": "% Ctrl"},
      {"measurement": "% Ctrl @ 10 μM", "setting": "[32]", "value": 61, "unit": "% Ctrl"}
    ]}
  ]
}
